Columns and labels:
[1] = Antiproliferative activity against human L02 cells assessed as inhibition of cell proliferation at 1 uM incubated for 72 hrs by SRB assay relative to control; type: toxicity, cell-based
[2] = test system: MIA PaCa-2; test: Antiproliferative activity against human MIA PaCa-2 cells assessed as inhibition of cell proliferation at 1 uM incubated for 72 hrs by SRB assay relative to control; type: functional
[3] = test system: CFPAC-1; test: Antiproliferative activity against human CFPAC-1 cells assessed as inhibition of cell proliferation at 1 uM incubated for 72 hrs by SRB assay relative to control; type: functional
[4] = test system: PaTu 8988t; test: Antiproliferative activity against human PaTu 8988t cells assessed as inhibition of cell proliferation at 1 uM incubated for 72 hrs by SRB assay relative to control; type: functional
[5] = test system: Panc02; test: Antiproliferative activity against mouse Panc02 cells assessed as inhibition of cell proliferation at 1 uM incubated for 72 hrs by SRB assay relative to control; type: functional
[6] = Antiproliferative activity against human L02 cells assessed as inhibition of cell proliferation incubated for 72 hrs by SRB assay; type: toxicity, cell-based
[7] = test system: MIA PaCa-2; test: Antiproliferative activity against human MIA PaCa-2 cells assessed as inhibition of cell proliferation incubated for 72 hrs by SRB assay; type: functional, cell-based; settings: MIA PaCa-2, 72 h
[8] = test system: CFPAC-1; test: Antiproliferative activity against human CFPAC-1 cells assessed as inhibition of cell proliferation incubated for 72 hrs by SRB assay; type: functional, cell-based; settings: CFPAC-1, 72 h
[9] = test system: PaTu 8988t; test: Antiproliferative activity against human PaTu 8988t cells assessed as inhibition of cell proliferation incubated for 72 hrs by SRB assay; type: functional, cell-based
[10] = test system: Panc02; test: Antiproliferative activity against mouse Panc02 cells assessed as inhibition of cell proliferation incubated for 72 hrs by SRB assay; type: functional, cell-based; settings: Panc02, 72 h
[11] = Metabolic stability in human liver microsome assessed as half life; type: ADME; settings: liver microsomes
[12] = Metabolic stability in human liver microsome assessed as intrinsic clearance; type: ADME; settings: liver microsomes, read-out: CLH
[13] = Metabolic stability in human liver microsome assessed as hepatic clearance; type: ADME; settings: microsomes
[14] = Metabolic stability in mouse liver microsome assessed as half life; type: ADME; settings: liver microsomes
[15] = Metabolic stability in mouse liver microsome assessed as intrinsic clearance; type: ADME; settings: liver microsomes, read-out: CLH
[16] = Metabolic stability in mouse liver microsome assessed as hepatic clearance; type: ADME; settings: microsomes

Row | Compound | inhibition at 72 h, 1 µM [1] [%] | inhibition at 1 µM [2] [%] | inhibition at 1 µM [3] [%] | inhibition at 1 µM [4] [%] | inhibition at 1 µM [5] [%] | IC50 at 72 h [6] [nM] | IC50 [7] [nM] | IC50 [8] [nM] | IC50 [9] [nM] | IC50 [10] [nM] | half-life [11] [min] | microsomal CLint [12] [µL/min/mg] | CLH [13] [mL/min/kg] | half-life [14] [min] | microsomal CLint [15] [µL/min/mg] | CLH [16] [mL/min/kg]
1 | COc1cc2c(OCCCc3cn([C@H]4O[C@@H](C)[C@H](OC(C)=O)[C@@H](OC(C)=O)[C@H]4OC(C)=O)nn3)c3c(c(-c4ccc5c(c4)OCO5)c2cc1OC)C(=O)OC3 | 38.3 | 93.6 | 75.7 | 93.9 | 86.7 | 494 | 40 | 7 | 24 | 12 | < 5 | > 277 | > 19.4 | < 5 | > 277 | > 83.2
2 | COc1cc2c(OCc3cn([C@H]4O[C@@H](C)[C@H](O)[C@@H](O)[C@H]4O)nn3)c3c(c(-c4ccc5c(c4)OCO5)c2cc1OC)C(=O)OC3 | -1.75 | 0.95 | 14.9 | -2.09 | 8.85 |  |  |  |  |  |  |  |  |  |  | 
3 | COc1cc2c(OCCOCc3cn([C@H]4O[C@@H](C)[C@H](O)[C@@H](O)[C@H]4O)nn3)c3c(c(-c4ccc5c(c4)OCO5)c2cc1OC)C(=O)OC3 | 1.57 | 0.16 | 53.9 | 0.9 | 46 |  |  |  |  |  |  |  |  |  |  | 
4 | COc1cc2c(NC(=O)[C@H](C)N)c3c(c(-c4ccc5c(c4)OCO5)c2cc1OC)C(=O)OC3 | 1.54 | 0.64 | 42.7 | -4.32 | 25.3 |  |  |  |  |  |  |  |  |  |  | 
5 | COc1cc2c(OCCCc3cn([C@H]4O[C@@H](C)[C@H](O)[C@@H](O)[C@H]4O)nn3)c3c(c(-c4ccc5c(c4)OCO5)c2cc1OC)C(=O)OC3 | -0.18 | 46.5 | 45.9 | 8.08 | 16.6 |  |  |  |  |  |  |  |  |  |  | 
6 | COc1cc2c(NS(N)(=O)=O)c3c(c(-c4ccc5c(c4)OCO5)c2cc1OC)C(=O)OC3 | 14.9 | 29 | 72.4 | 34.1 | 80.7 |  |  |  |  |  |  |  |  |  |  | 
7 | COc1cc2c(NC(=O)[C@@H](N)COC(C)=O)c3c(c(-c4ccc5c(c4)OCO5)c2cc1OC)C(=O)OC3 | -0.71 | 3.38 | 11.6 | 2.63 | 8.86 |  |  |  |  |  |  |  |  |  |  | 
